What was measured:
Adenosine receptor A2b = target: T1, Adenosine receptor A2b (Homo sapiens, UniProt P29275); assay: Displacement of [3H]DPCPX from human adenosine A2B receptor expressed in HEK293 cells after 30 mins by Scatchard plot analysis; format: cell-based
T1 sequence (P29275 whole entry): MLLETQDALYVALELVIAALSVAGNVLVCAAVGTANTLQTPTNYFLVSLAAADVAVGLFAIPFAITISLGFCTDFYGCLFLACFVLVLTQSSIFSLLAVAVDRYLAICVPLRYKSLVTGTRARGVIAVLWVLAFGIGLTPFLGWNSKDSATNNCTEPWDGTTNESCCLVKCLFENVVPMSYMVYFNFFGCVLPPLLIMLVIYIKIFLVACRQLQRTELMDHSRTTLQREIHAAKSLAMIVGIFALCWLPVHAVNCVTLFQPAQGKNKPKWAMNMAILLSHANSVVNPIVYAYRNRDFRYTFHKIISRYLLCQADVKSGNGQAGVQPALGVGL

[1] = target: T2, Adenosine receptor A3 (Homo sapiens) (UniProt P0DMS8); assay: Displacement of [3H]NECA from adenosine A3 receptor in human HeLa cells at 10 uM after 180 mins; format: cell-based
T2 sequence (whole entry): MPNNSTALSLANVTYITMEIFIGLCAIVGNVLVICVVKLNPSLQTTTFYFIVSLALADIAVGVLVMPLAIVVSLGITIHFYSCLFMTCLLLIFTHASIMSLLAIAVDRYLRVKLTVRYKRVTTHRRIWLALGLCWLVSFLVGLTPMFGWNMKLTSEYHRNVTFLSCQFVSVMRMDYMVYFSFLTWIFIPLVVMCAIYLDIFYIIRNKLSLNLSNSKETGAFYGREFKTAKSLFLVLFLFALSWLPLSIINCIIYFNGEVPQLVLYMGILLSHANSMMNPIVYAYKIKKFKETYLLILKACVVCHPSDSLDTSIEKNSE

[2] = target: T3, Adenosine receptor A1 (Homo sapiens) (UniProt P30542); assay: Displacement of [3H]DPCPX from human adenosine A1 receptor expressed in CHO cells at 10 uM after 60 mins; format: cell-based
T3 sequence (whole entry): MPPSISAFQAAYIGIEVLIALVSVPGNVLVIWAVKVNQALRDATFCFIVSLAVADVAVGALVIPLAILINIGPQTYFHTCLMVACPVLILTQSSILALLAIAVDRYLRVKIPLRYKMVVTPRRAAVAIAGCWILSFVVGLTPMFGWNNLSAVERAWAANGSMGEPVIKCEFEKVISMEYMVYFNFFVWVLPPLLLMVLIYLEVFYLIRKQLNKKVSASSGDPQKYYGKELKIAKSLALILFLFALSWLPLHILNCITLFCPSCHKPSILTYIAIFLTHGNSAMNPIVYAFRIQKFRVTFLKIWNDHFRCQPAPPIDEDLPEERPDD

Adenosine receptor A2a [3] = target: T4, Adenosine receptor A2a (Homo sapiens, UniProt P29274); assay: Displacement of [3H]ZM241385 from adenosine A2A receptor in human HeLa cells at 10 uM after 30 mins; format: cell-based
[4] = target: T5, Adenosine receptor A2b (Homo sapiens) (UniProt P29275); assay: Displacement of [3H]DPCPX from human from adenosine A2B receptor in HEK293 cells at 10 uM after 30 mins by Scatchard plot analysis; format: cell-based
T5 sequence (whole entry): T1 sequence (P29275 whole entry)

Cytochrome P450 3A4 = Cytochrome P450 3A4 (Homo sapiens, UniProt P08684); assay: Inhibition of human recombinant CYP3A4 expressed in baculosomes at 100 fold Ki; format: ADME; conditions: recombinant enzyme
Adenosine receptor A1 = target: T6, Adenosine receptor A1 (Homo sapiens, UniProt P30542); assay: Displacement of [3H]DPCPX from human adenosine A1 receptor expressed in CHO cells after 60 mins; format: cell-based
T6 sequence (P30542 whole entry): T3 sequence (whole entry)

Adenosine receptor A2a [5] = target: T4, Adenosine receptor A2a; assay: Displacement of [3H]ZM241385 from adenosine A2A receptor in human HeLa cells after 30 mins; format: cell-based
Cytochrome P450 1A2 = target: T7, Cytochrome P450 1A2 (Homo sapiens, UniProt P05177); assay: Inhibition of human recombinant CYP1A2 expressed in baculosomes at 100 fold Ki; format: ADME; conditions: recombinant enzyme
T7 sequence (P05177 whole entry): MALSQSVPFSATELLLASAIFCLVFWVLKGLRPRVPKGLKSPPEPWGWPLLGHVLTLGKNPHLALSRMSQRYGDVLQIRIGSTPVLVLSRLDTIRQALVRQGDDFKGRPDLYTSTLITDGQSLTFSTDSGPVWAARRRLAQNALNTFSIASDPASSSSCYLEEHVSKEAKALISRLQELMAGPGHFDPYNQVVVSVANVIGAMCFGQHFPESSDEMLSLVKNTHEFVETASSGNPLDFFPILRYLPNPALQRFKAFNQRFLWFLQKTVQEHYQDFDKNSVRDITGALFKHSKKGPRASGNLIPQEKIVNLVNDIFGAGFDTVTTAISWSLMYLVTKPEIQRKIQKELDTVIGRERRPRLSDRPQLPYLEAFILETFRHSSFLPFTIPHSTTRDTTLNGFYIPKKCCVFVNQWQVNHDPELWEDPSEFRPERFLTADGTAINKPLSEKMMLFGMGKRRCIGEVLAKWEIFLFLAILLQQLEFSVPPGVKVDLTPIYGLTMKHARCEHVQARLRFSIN

Adenosine receptor A3 = target: T8, Adenosine receptor A3 (Homo sapiens, UniProt P0DMS8); assay: Displacement of [3H]NECA from adenosine A3 receptor in human HeLa cells after 180 mins; format: cell-based
T8 sequence (P0DMS8 whole entry): T2 sequence (whole entry)

[6] = target: T5, Adenosine receptor A2b (Homo sapiens); assay: Antagonist activity at human adenosine A2B receptor expressed in HEK293 cells assessed as inhibition of NECA-stimulated cAMP accumulation incubated for 15 mins prior to NECA-challenge measured after 15 mins by spectrophotometry; format: functional, cell-based

T4 sequence (P29274 whole entry): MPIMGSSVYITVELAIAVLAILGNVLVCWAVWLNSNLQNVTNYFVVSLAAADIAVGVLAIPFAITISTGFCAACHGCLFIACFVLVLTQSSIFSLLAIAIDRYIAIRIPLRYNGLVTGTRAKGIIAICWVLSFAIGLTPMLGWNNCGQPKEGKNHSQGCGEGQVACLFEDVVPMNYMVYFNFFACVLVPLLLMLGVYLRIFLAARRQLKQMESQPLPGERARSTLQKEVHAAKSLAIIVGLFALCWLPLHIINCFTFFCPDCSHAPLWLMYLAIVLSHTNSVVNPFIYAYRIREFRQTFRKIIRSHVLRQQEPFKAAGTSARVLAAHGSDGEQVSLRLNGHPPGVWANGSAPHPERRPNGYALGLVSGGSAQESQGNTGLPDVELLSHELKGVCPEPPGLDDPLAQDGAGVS
Cytochrome P450 3A4, sequence (P08684 whole entry): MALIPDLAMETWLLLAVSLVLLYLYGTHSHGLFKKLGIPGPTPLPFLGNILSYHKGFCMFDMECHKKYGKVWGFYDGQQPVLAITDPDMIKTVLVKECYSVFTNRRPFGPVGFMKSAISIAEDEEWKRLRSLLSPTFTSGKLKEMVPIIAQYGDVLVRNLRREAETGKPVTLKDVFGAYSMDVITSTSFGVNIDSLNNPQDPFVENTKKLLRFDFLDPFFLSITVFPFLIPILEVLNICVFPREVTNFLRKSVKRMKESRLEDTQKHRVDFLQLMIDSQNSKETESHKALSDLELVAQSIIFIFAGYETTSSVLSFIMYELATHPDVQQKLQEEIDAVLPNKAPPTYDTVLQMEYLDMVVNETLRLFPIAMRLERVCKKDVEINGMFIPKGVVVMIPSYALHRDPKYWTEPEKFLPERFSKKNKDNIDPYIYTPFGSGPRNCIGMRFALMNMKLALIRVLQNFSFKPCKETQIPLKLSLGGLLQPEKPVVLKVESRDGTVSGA

Ki (Adenosine receptor A2b) | inhibition [1] | inhibition [2] | inhibition (Adenosine receptor A2a [3]) | inhibition [4] | inhibition (INH) (Cytochrome P450 3A4) | Ki (Adenosine receptor A1) | Ki (Adenosine receptor A2a [5]) | inhibition (INH) (Cytochrome P450 1A2) | Ki (Adenosine receptor A3) | Kb [6] | Compound
40.8 nM | 4% | 18% | 23% | – | – | – | – | – | – | – | CC1=C(C(=O)OC(C)C)C(c2ccco2)NC(=O)N1 (racemic)
2160 nM | 13% | 34% | 25% | – | – | – | – | – | – | – | COC(=O)C1=C(C)NC(=O)NC1c1ccco1 (racemic)
1570 nM | 20% | 23% | 15% | – | – | – | – | – | – | – | CC1=C(C(=O)OC(C)C)C(c2cccs2)NC(S)=N1 (racemic)
– | 2% | 3% | 17% | 28% | – | – | – | – | – | – | CCOC(=O)C1=C(c2ccccc2)NC(=O)NC1c1ccco1 (racemic)
– | 2% | 3% | 33% | 39% | – | – | – | – | – | – | CCOC(=O)C1=C(C)NC(=O)NC1c1cccs1 (racemic)
56.6 nM | 5% | 26% | 25% | – | – | – | – | – | – | – | CC1=C(C(=O)OC(C)C)C(c2ccsc2)NC(=O)N1 (racemic)
3430 nM | 15% | 6% | 11% | – | – | – | – | – | – | – | CCOC(=O)c1c(-c2ccco2)nc(=O)[nH]c1C
194 nM | 23% | 18% | 33% | – | – | – | – | – | – | – | CC1=C(C(=O)OC(C)C)C(c2ccoc2)NC(=S)N1 (racemic)
23.6 nM | 11% | 16% | 34% | – | Not Active | > 10000 nM | > 10000 nM | Not Active | > 10000 nM | 25.2 nM | CCOC(=O)C1=C(C)NC(=O)NC1c1ccsc1 (racemic)
– | 18% | 22% | 24% | 28% | – | – | – | – | – | – | CC1=C(C(=O)OC(C)C)C(c2cccs2)NC(=O)N1C (racemic)
206 nM | 2% | 43% | 55% | – | – | – | – | – | – | – | CCCOC(=O)C1=C(C)NC(=O)NC1c1ccco1 (racemic)
– | 1% | 23% | 2% | 35% | – | – | – | – | – | – | CC1=C(C(=O)OC(C)C)C(c2ccoc2)NC(=O)N1C (racemic)
3110 nM | 1% | 19% | 24% | – | – | – | – | – | – | – | CCOC(=O)C1=C(C)NC(=O)N(C(C)=O)C1c1ccco1 (racemic)
6250 nM | 4% | 2% | 23% | – | – | – | – | – | – | – | CCOC(=O)C1=C(C)N=C(S)NC1c1cccs1 (racemic)
– | 2% | 2% | 1% | 2% | – | – | – | – | – | – | CC1=C(C(N)=O)C(c2ccco2)NC(=O)N1 (racemic)
– | 5% | 24% | 7% | 31% | – | – | – | – | – | – | CC1=C(C(=O)Nc2ccccc2)C(c2ccco2)NC(=O)N1 (racemic)
416 nM | 3% | 16% | 20% | – | – | – | – | – | – | – | CC1=C(C(=O)OC(C)C)C(c2ccsc2)NC(=S)N1 (racemic)
4260 nM | 1% | 17% | 24% | – | – | – | – | – | – | – | CCOC(=O)C1=C(C)N(C)C(=O)NC1c1ccoc1 (racemic)

From ChEMBL document CHEMBL3091330, “Discovery of 3,4-Dihydropyrimidin-2(1H)-ones As a Novel Class of Potent and Selective A2B Adenosine Receptor Antagonists” (ACS Med Chem Lett, 2013)
